Test results: ChEMBL document CHEMBL1201862, “PubChem BioAssay data set” (2004)
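Protocol summary: plate cells (96-well), add compound at 5 concentrations, incubate 48 h, interpolate endpoints linearly. GI50 is the concentration that inhibits growth by half.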 Calls of active or inactive are those of the source. Rule as the data show it: active = GI50 up to about 1.1 µM and inactive = higher.

Experiments:
Assay in all cases: NCI anticancer screen, dose series, 48 h
RXF 393 = test system: RXF 393
BT-549 = test system: BT-549
SR = test system: SR
A549 = test system: A549
HCC 2998 = test system: HCC 2998
HOP-62 = test system: HOP-62
RPMI-8226 = test system: RPMI-8226
HCT-15 = test system: HCT-15
KM12 = test system: KM12
SN12C = test system: SN12C
SNB-19 = test system: SNB-19
MDA-N = test system: MDA-N
HT-29 = test system: HT-29
SNB-75 = test system: SNB-75
NCI-H460 = test system: NCI-H460
ACHN = test system: ACHN
MDA-MB-231 = test system: MDA-MB-231
SK-MEL-2 = test system: SK-MEL-2

Row | Compound | GI50 (RXF 393) | GI50 (BT-549) | GI50 (SR) | GI50 (A549) | GI50 (HCC 2998) | GI50 (HOP-62) | GI50 (RPMI-8226) | GI50 (HCT-15) [nM] | GI50 (KM12) | GI50 (SN12C) | GI50 (SNB-19) | GI50 (MDA-N) | GI50 (HT-29) | GI50 (SNB-75) | GI50 (NCI-H460) | GI50 (ACHN) | GI50 (MDA-MB-231) | GI50 (SK-MEL-2)
1 | Oc1ccccc1C(c1cc2c(cc1O)OCO2)N1CCOCC1 (stereo not drawn) | 14.3 µM (inactive) | 16.6 µM (inactive) | 8.07 µM (inactive) | 23 µM (inactive) | 18.7 µM (inactive) | 38.8 µM (inactive) | 12.8 µM (inactive) | 16400 | 19.8 µM (inactive) | 19.1 µM (inactive) | 19.1 µM (inactive) | 18.7 µM (inactive) | 18.5 µM (inactive) | 16.4 µM (inactive) | 27.4 µM (inactive) | 17.5 µM (inactive) | 21 µM (inactive) | 17.8 µM (inactive)
2 | O=C1NC2c3c(I)sc(I)c3C(=O)C2O1 (stereo not drawn) | 5.56 µM (inactive) | 5.53 µM (inactive) | 2.96 µM (inactive) | 14.1 µM (inactive) | 3.95 µM (inactive) | 14.1 µM (inactive) | 8.15 µM (inactive) | 2080 | 11.6 µM (inactive) | 4.27 µM (inactive) | 13.2 µM (inactive) | 2.96 µM (inactive) | 1.7 µM (inactive) | 13.1 µM (inactive) | 13.9 µM (inactive) | 3.05 µM (inactive) | 4.49 µM (inactive) | 10.4 µM (inactive)
3 | Cc1ccc(S(=O)(=O)N2CCSCCSCCSCCSCC2)cc1 | > 27.9 µM (inactive) | 25.4 µM (inactive) | > 74.3 µM (inactive) | 61.1 µM (inactive) | > 100 µM (inactive) | > 40.6 µM (inactive) | 77.1 µM (inactive) | > 100000 | > 100 µM (inactive) | > 58.5 µM (inactive) | 24.8 µM (inactive) | > 89.7 µM (inactive) | > 100 µM (inactive) | 11.9 µM (inactive) | 56.4 µM (inactive) | > 58.3 µM (inactive) | 19.5 µM (inactive) | > 34.6 µM (inactive)
4 | C=CCC1C(O[Si](C)(C)C(C)(C)C)C(CO[Si](C)(C)C(C)(C)C)OC1n1ccc(=O)[nH]c1=O (stereo not drawn) | 1.8 µM (inactive) | 1.93 µM (inactive) | 2.07 µM (inactive) | 1.38 µM (inactive) | 1.63 µM (inactive) | 1.98 µM (inactive) | 1.4 µM (inactive) | 1150 | 1.96 µM (inactive) | 1.38 µM (inactive) | 1.61 µM (inactive) | 1.51 µM (inactive) | 1.44 µM (inactive) | 1.24 µM (inactive) | 1.16 µM (inactive) | 1.6 µM (inactive) | 1.79 µM (inactive) | 2.14 µM (inactive)
5 | COc1ccc2c(c1)[C@@H]1c3cc(OC)c(OC)cc3CCN1CCC2 | > 100 µM (inactive) | 68.9 µM (inactive) | 76 µM (inactive) | > 100 µM (inactive) | > 100 µM (inactive) | > 100 µM (inactive) | 54.8 µM (inactive) | 79400 | > 100 µM (inactive) | > 100 µM (inactive) | > 100 µM (inactive) | > 100 µM (inactive) | 93.1 µM (inactive) | > 100 µM (inactive) | 31.4 µM (inactive) | > 100 µM (inactive) | > 100 µM (inactive) | > 100 µM (inactive)
6 | Cc1nc(Cl)c(CBr)c(Cl)n1 | 2.11 µM (inactive) | 0.272 µM (active) | 0.0813 µM (active) | 6.3 µM (inactive) | 3.64 µM (inactive) | 1.91 µM (inactive) | 0.889 µM (active) | 1610 | 1.03 µM (active) | 1.73 µM (inactive) | 3.68 µM (inactive) | 1.44 µM (inactive) | 0.728 µM (active) | 1 µM (active) | 2.33 µM (inactive) | 1.71 µM (inactive) | 1.95 µM (inactive) | 1.87 µM (inactive)
